The text below walks through data of patent US20250345426A1, “METHODS FOR MAKING AND USING THERAPEUTIC CELLS” (THE REGENTS OF THE UNIVERSITY OF CALIFORNIA, priority 2022, published 2025).

In assay [1] the test system is Raji tumor xenografts. Put plainly: Raji xenograft in NSG mice treated with inhibitor-preconditioned rituximab CAR-T cells. The format is in vivo. Particulars: NSG mice, Raji i.v., preconditioned rituximab CAR-T cells, bioluminescence, vs vehicle control. On the procedure:
FIG. 2A-C. […] (A) Tumor signal (in photons/sec/cm^2/sr) in individual animals as quantified by bioluminescence imaging. […] Statistical significance was determined by Mann-Whitney U test with Holm-Sidak correction for multiple comparisons. * p<0.05, n.s. not statistically significant. (B) Kaplan-Meier survival curve (top) and table of median survival period in days (bottom). (C) Frequency of human CD45+EGFRt+ cell in peripheral blood collected from mice on day 8 after first dose of T-cell infusion. Statistical significance was determined by two-tailed Student's t test with Sidak correction for multiple comparisons. * p<0.05, ** p<0.01.
In vivo studies. Six- to eight-week-old NOD/SCID/IL-2Rγ^null (NSG) mice were obtained from UCLA Department of Radiation and Oncology. The protocol was approved by UCLA Institutional Animal Care and Used Committee. […] Details of the dose and timing of tumor injection, T-cell injection, and tumor re-challenge are indicated in the text and figures. Tumor progression/regression was monitored with an IVIS Illumina III LT Imaging System (PerkinElmer). Blood samples were harvested via retro-orbital bleeding 3 days post T-cell injection and every 10-13 days thereafter. Mice were euthanized at the humane endpoint. Bone marrow, spleen and liver were collected after euthanasia. Tissues were ground and passed through a 100-μm filter followed by red-blood-cell lysis prior to flow-cytometry analysis.

Assay [2] has as its system Leu16 CAR-T cells. Put plainly: Antigen-independent activation and exhaustion marker expression by flow cytometry, Leu16 CAR-T cells. The class given is cell-based, human. To be noted: equivalent concentrations as for rituximab CAR-T cells. The source says:
FIG. 3A-G. Pharmacological modulation of Leu16 CAR-T cells modestly dampens tonic signaling while enhancing anti-tumor efficacy. (A) Pictorial representation of the correlation between tonic signaling-modulated rituximab CAR-T cells and in vivo anti-tumor efficacy. (B) Pictorial representation of pharmacological modulation strategy aimed to either increase or decrease Leu16 CAR tonic signaling; c-MYC (MYCi975) and SREBP (betulin) inhibition increased tonic signaling whereas mTORC1 (rapamycin) inhibition decreased tonic signaling in rituximab CAR-T cells. (C) % distribution of T-cell subtypes in CAR^+ T cells after 6 days of pharmacological modulation (left) and Tn/scm enrichment (right). […] (F) Tumor signal (in photons/sec/cm2/sr) in individual animals as quantified by bioluminescence imaging. […]
Antibody staining for flow-cytometry analysis. EGFRt expression was measured with biotinylated cetuximab (Eli Lilly; biotinylated in-house), followed by PE-conjugated streptavidin (Jackson ImmunoResearch #016-110-084). CAR expression was quantified by surface epitope staining using anti-Fc (Alexa Fluor 488, Jackson ImmunoResearch #709-546-098). […] T-cell subtype of CAR-T cells was evaluated by antibody staining for CD45RO (VioBlue®, clone REA611, Miltenyi #130-119-620) and CD62L (APC, clone DREG56, Invitrogen #17-0629-42) after 5-6 days of inhibitor culture (FIG. 1, FIG. 3). […]
On the technique in general: In flow cytometry, cells or beads pass a laser one at a time.

Entries after “also recorded” stand apart in the source; their conditions may differ.

In the case of `C=C(C)[C@@H]1CC[C@]2(CO)CC[C@]3(C)[C@H](CC[C@@H]4[C@@]5(C)CC[C@H](O)C(C)(C)[C@@H]5CC[C@]43C)[C@@H]12` [betulin, Betulin], the “tumor outgrowth / tumor progression” value in assay [1] was “accelerated tumor progression”. The tonic signaling entry in assay [2] was “dampened; also recorded: significant decrease”.

As to MYCi975, in assay [1], the “tumor outgrowth / tumor progression” value was “accelerated tumor progression”. The tonic signaling result in assay [2] was “dampened”.
